Results published in article PMC12029179, “6-Chlorocoumarin Conjugates with Nucleobases and Nucleosides as Potent Anti-Hepatitis C Virus Agents” (Molecules, 2025).
pEC50, pIC50: −log10 of the molar value.

What was measured:
[1] = test system: subgenomic HCV genotype 1b replicon; parameters: method as in PMID 30951311; settings: cited from earlier work
[2] = Host-cell metabolic activity (MTS assay) in Huh 5-2 cells; type: cell-based; settings: human
Source text: (§1) An evaluation of the antiviral effects of the conjugated compounds was initially performed in Huh 5-2 cells utilizing the HCV genotype 1b subgenomic replicon system, based on previously reported procedures. By analyzing the dose–response curves, we calculated the concentration of each compound that inhibited the viral replication by 50% (EC50) and the concentration that reduced the host-cell metabolic activity by 50% (CC50). These values were then used to compute the selectivity index (SI = CC50/EC50), which serves as an indicator of a compound’s therapeutic window. Even if an EC50 was determined from the dose–response curve in the antiviral assay, the compounds that were evaluated may not qualify as promising hits. […] It is likely that the antiviral activity observed in the other compounds is due to their nonspecific or pleiotropic effects on the host cell.

[3] = test system: HCV genotype 1b subgenomic replicon; experiment: Anti-HCV assay in Huh 5-2 cells (luciferase replicon readout); type: cell-based, hepatitis C virus (HCV); settings: for pEC50: Huh-5-2, Huh 5-2 cells, luminescence
Source text: as §1
Huh 5-2 cells were plated in white, tissue culture-treated 96-well view plates (Packard, Canberra, Canada) at a density of 5 × 10^3 cells per well, using complete Dulbecco’s Modified Eagle Medium (DMEM) containing 250 µg/mL G418. Following 24 h incubation at 37 °C with 5% CO2, the medium was discarded and serial 3-fold dilutions of the test compounds—prepared in complete DMEM lacking G418—were added to reach a final volume of 100 µL per well. After an additional 4-day incubation period under the same conditions, the medium was removed, and luciferase activity was assessed using the Steady-Glo luciferase assay kit (Promega, Leiden, The Netherlands). Luminescence was measured with a Luminoskan Ascent reader (Thermo, Vantaa, Finland). The EC50 value was determined as the compound concentration resulting in a 50% decrease in luciferase signal.

Detroit 551 cells = experiment: Cell viability (MTS) assay in Detroit 551 cells; type: cell-based; settings: Detroit 551 cells; for cell death at highest tested concentration: 20 μM; for pIC50: Homo sapiens, 72 h incubation, tested starting at 20.0 μM, read-out: IC50 (cell survival rate of 50%)
Method: Detroit 551 cells, a human fibroblast cell line, are routinely employed to assess both acute and chronic toxicity in normal human cells. Evaluating the cytotoxicity of compounds in Detroit 551 cells helps to identify potential safety concerns early in drug development. The three promising leads, 7a, 7b, and 18, were tested in a Detroit 551 assay using the antineoplastic and antibiotic agent actinomycin D as a positive control.
Detroit 551 cells were harvested and seeded into a 96-well plate, then incubated at 37 °C for 24 h. A serial dilution of the test compound was prepared in eight three-fold concentrations (20,000 nM, 6667 nM, 2222 nM, 741 nM, 247 nM, 82 nM, 27 nM, and 9 nM), and 10 µL of each dilution was added to the corresponding wells. The plate was then returned to 37 °C for an additional 72 h of incubation. After this incubation, a 3-(4,5-dimethylthiazol-2-yl)-5-(3-carboxymethoxyphenyl)-2-(4-sulfophenyl)-2H-tetrazolium (MTS) assay medium (mixed in a 2:0.1 ratio of MTS–phenazine methyl sulfate (PMS)) was prepared. The plate was moved to a biological safety cabinet, and 21 µL of the MTS medium was added to each well. The plate was then incubated at 37 °C for 90 min before absorbance was measured at 490 nm on a Victor 2 plate reader (PerkinElmer, Inc., Waltham, MA, USA). Data were subsequently analyzed to assess cytotoxicity.

HCV subgenomic replicon = experiment: Anti-HCV assay in Huh 9-13 cells (real-time quantitative RT-PCR of replicon RNA); type: cell-based, hepatitis C virus (HCV); settings: for % replicon RNA: normalized against no-drug control; for pEC50 / EC50: Hepatitis C virus; for pEC50: real-time quantitative RT-PCR readout; for EC50: supplement dose-response data
Method: Furthermore, the antiviral activity of three of the hits (i.e., 7a, 7b, and 18) was validated by evaluation of the dose–response effect of treatment with the compounds at the level of viral RNA replication in the Huh 9-13 assay system. The real-time quantitative RT-PCR readout was used.
Huh 9-13 cells were seeded at 5 × 10^3 cells per well into 96-well plates containing complete DMEM supplemented with 1000 µg/mL G418. […] After 4 days of incubation, the culture medium was removed, and the cell monolayers were washed once with phosphate-buffered saline (PBS). Cells were then lysed using 350 µL of RLT buffer (Qiagen, Venlo, The Netherlands) as per the manufacturer’s protocol, and the lysates were stored at −80 °C for future analysis. Upon completion of sample collection, RNA was extracted, and the samples were analyzed through quantitative real-time PCR to measure their HCV replicon content. The real-time RT-PCR data for all samples were calibrated against the “no-drug control”.
* After collection of all samples, RNA was extracted and samples were analyzed by quantitative real-
time PCR for their HCV replicon content. Real-time RT-PCR values of all assayed samples were
normalized against the “no-drug control”.

Huh 9-13 cells = experiment: Host-cell metabolic activity in Huh 9-13 cells; type: cell-based
[4] = Host-cell metabolic activity in Huh 9-13 cells; type: cell-based; settings: human
HCV = test system: HCV; parameters: method as in PMID 19303654; settings: Huh-5-2 cells; cited from earlier work
Huh-5-2 cells = test system: Huh-5-2 cells; parameters: method as in PMID 19303654; settings: cited from earlier work
[5] = primary screening, tested starting at 50 μg/mL
[6] = secondary screen starting at 125 μg/mL
[7] = Hepatitis C virus, primary screening, tested starting at 50 μg/mL
[8] = Hepatitis C virus, secondary screen starting at 125 μg/mL, average of triplicate
[9] = Huh 5-2 cells, primary screening starting at 50 μg/mL
[10] = Huh 5-2 cells, secondary screen starting at 125 μg/mL
[11] = compound 18 tested starting at 125 µg/mL

CC(C)OC(=O)[C@H](C)N[P@](=O)(OC[C@@]1(F)O[C@@H](n2ccc(=O)[nH]c2=O)[C@](C)(O)[C@@H]1O)Oc1ccccc1 [AL-335]
pEC50 [1]: 7.15

O=c1oc2ccc(Cl)cc2cc1CSc1ncnc2c1ncn2[C@@H]1O[C@H](CO)[C@@H](O)[C@H]1O [Compound 7b, 6-(6′-Chlorocoumarin-3′-yl)methylthio-9-(β-D-ribofuranos-1″-yl)purine]
CC50 [2, 5]: > 105 µM
CC50 [2, 6]: > 262 µM
pEC50 [3, 7]: 5.06
pEC50 [3, 8]: 5.25
SI (CC50/EC50) [3, 9]: >12
SI (CC50/EC50) [3, 10]: >47
cell death at highest tested concentration (Detroit 551 cells): none of the three compounds induced cell death
pIC50 (Detroit 551 cells): < 4.70
SI (CC50/EC50) (HCV subgenomic replicon): >16
Quantity (HCV replicon RNA, real-time PCR) (HCV subgenomic replicon; 0.023 µg/ml): 1.11E-04
% replicon RNA (HCV subgenomic replicon; 0.023 µg/ml): 92%
Quantity (HCV replicon RNA, real-time PCR) (HCV subgenomic replicon; 0.069 µg/ml): 1.33E-04
% replicon RNA (HCV subgenomic replicon; 0.069 µg/ml): 110%
Quantity (HCV replicon RNA, real-time PCR) (HCV subgenomic replicon; 0.206 µg/ml): 2.07E-04
% replicon RNA (HCV subgenomic replicon; 0.206 µg/ml): 171%
Quantity (HCV replicon RNA, real-time PCR) (HCV subgenomic replicon; 0.617 µg/ml): 1.03E-04
% replicon RNA (HCV subgenomic replicon; 0.617 µg/ml): 85%
Quantity (HCV replicon RNA, real-time PCR) (HCV subgenomic replicon; 5.56 µg/ml): 2.85E-05
% replicon RNA (HCV subgenomic replicon; 5.56 µg/ml): 24%
Quantity (HCV replicon RNA, real-time PCR) (HCV subgenomic replicon; 16.67 µg/ml): 1.64E-05
% replicon RNA (HCV subgenomic replicon; 16.67 µg/ml): 14%
Quantity (HCV replicon RNA, real-time PCR) (HCV subgenomic replicon; 50 µg/ml): 3.63E-06
% replicon RNA (HCV subgenomic replicon; 50 µg/ml): 3%
Quantity (HCV replicon RNA, real-time PCR) (HCV subgenomic replicon; 1.852 (7b: 1.85) µg/ml): 9.12E-05
% replicon RNA (HCV subgenomic replicon; 1.852 (7b: 1.85) µg/ml): 75%
pEC50 (HCV subgenomic replicon): 5.18
EC50 (HCV subgenomic replicon): 3.17 µg/mL
% cell metabolism (Huh 9-13 cells; 0.023 µg/ml): 100%
% cell metabolism (Huh 9-13 cells; 0.069 µg/ml): 107%
% cell metabolism (Huh 9-13 cells; 0.206 µg/ml): 102%
% cell metabolism (Huh 9-13 cells; 0.617 µg/ml): 108%
% cell metabolism (Huh 9-13 cells; 5.56 µg/ml): 115%
% cell metabolism (Huh 9-13 cells; 16.67 µg/ml): 113%
% cell metabolism (Huh 9-13 cells; 50 µg/ml): 94%
% cell metabolism (Huh 9-13 cells; 1.852 (7b: 1.85) µg/ml): 106%
CC50 [4, 11]: > 105 µM
CC50 ([4]; supplement dose-response data): > 50 µg/mL

O=c1ccnc(SCc2cc3cc(Cl)ccc3oc2=O)[nH]1 [Compound 18, 2-[(6′-Chlorocoumarin-3′-yl)methylthio]uracil]
CC50 [2, 5]: > 156 µM
CC50 [2, 6]: > 390 µM
pEC50 [3, 7]: 4.32
pEC50 [3, 8]: 4.06
inhibition at 125 µg/mL ([3]; Hepatitis C virus, Huh 5-2 cells, at 125 μg/mL): > 90%
SI (CC50/EC50) [3, 9]: >3.2
SI (CC50/EC50) [3, 10]: >4.5
cell death at highest tested concentration (Detroit 551 cells): none of the three compounds induced cell death
pIC50 (Detroit 551 cells): < 4.70
SI (CC50/EC50) (HCV subgenomic replicon): >41
Quantity (HCV replicon RNA, real-time PCR) (HCV subgenomic replicon; 0.977 µg/ml): 2.11E-03
% replicon RNA (HCV subgenomic replicon; 0.977 µg/ml): 66%
Quantity (HCV replicon RNA, real-time PCR) (HCV subgenomic replicon; 1.953 µg/ml): 2.06E-03
% replicon RNA (HCV subgenomic replicon; 1.953 µg/ml): 64%
Quantity (HCV replicon RNA, real-time PCR) (HCV subgenomic replicon; 3.906 µg/ml): 1.40E-03
% replicon RNA (HCV subgenomic replicon; 3.906 µg/ml): 44%
Quantity (HCV replicon RNA, real-time PCR) (HCV subgenomic replicon; 7.813 µg/ml): 1.12E-03
% replicon RNA (HCV subgenomic replicon; 7.813 µg/ml): 35%
Quantity (HCV replicon RNA, real-time PCR) (HCV subgenomic replicon; 15.625 µg/ml): 4.59E-04
% replicon RNA (HCV subgenomic replicon; 15.625 µg/ml): 14%
Quantity (HCV replicon RNA, real-time PCR) (HCV subgenomic replicon; 31.25 µg/ml): 2.30E-04
% replicon RNA (HCV subgenomic replicon; 31.25 µg/ml): 7%
Quantity (HCV replicon RNA, real-time PCR) (HCV subgenomic replicon; 62.50 µg/ml): 6.77E-05
% replicon RNA (HCV subgenomic replicon; 62.50 µg/ml): 2%
Quantity (HCV replicon RNA, real-time PCR) (HCV subgenomic replicon; 125 µg/ml): 4.20E-05
% replicon RNA (HCV subgenomic replicon; 125 µg/ml): 1%
pEC50 (HCV subgenomic replicon): 5.03
EC50 (HCV subgenomic replicon): 3 µg/mL
% cell metabolism (Huh 9-13 cells; 0.977 µg/ml): 103%
% cell metabolism (Huh 9-13 cells; 1.953 µg/ml): 92%
% cell metabolism (Huh 9-13 cells; 3.906 µg/ml): 109%
% cell metabolism (Huh 9-13 cells; 7.813 µg/ml): 101%
% cell metabolism (Huh 9-13 cells; 15.625 µg/ml): 98%
% cell metabolism (Huh 9-13 cells; 31.25 µg/ml): 103%
% cell metabolism (Huh 9-13 cells; 62.50 µg/ml): 99%
% cell metabolism (Huh 9-13 cells; 125 µg/ml): 104%
CC50 [4, 11]: > 390 µM
CC50 ([4]; supplement dose-response data): > 125 µg/mL

CC(C)(C)NC(=O)N[C@H](C(=O)N1C[C@H]2[C@@H]([C@H]1C(=O)NC(CC1CCC1)C(=O)C(N)=O)C2(C)C)C(C)(C)C (some centres unmarked) [boceprevir]
pEC50 (HCV): 6.03
CC50 (Huh-5-2 cells): ≥ 7.4 µM

CCC[C@H](NC(=O)[C@@H]1[C@H]2CCC[C@H]2CN1C(=O)[C@@H](NC(=O)[C@@H](NC(=O)c1cnccn1)C1CCCCC1)C(C)(C)C)C(=O)C(=O)NC1CC1 [telaprevir]
pEC50 (HCV): 5.96
CC50 (Huh-5-2 cells): ≥ 24 µM
